Results on 18 molecules are retold here after patent publication US7507730B2, “Substituted pyrazolo[1,5-a]pyrimidines as potassium channel activators” (Bristol-Myers Squibb Company, priority 2005, dated 2009).

Broadly, the inhibition is the change of the read-out against control, counted positive when it falls. By IC50 is commonly meant the concentration needed to halve the response being measured.

One assay deals with Kv1.5 (Homo sapiens, UniProt P22460). The assay can be described thus: Kv1.5 inhibition assay (IKur inhibitor assay per cited references). It counts as cell-based. The conditions noted are these: at 0.3 μM. The source says: Assays to determine the degree of activity of a compound as an IKur inhibitor are well known in the art and are described in references such as J. Gen. Physiol. Apr.; 101 (4):513-43, and Br. J. Pharmacol. 1995 May; 115(2):267-74.
Sequence of Kv1.5 (P22460 whole entry): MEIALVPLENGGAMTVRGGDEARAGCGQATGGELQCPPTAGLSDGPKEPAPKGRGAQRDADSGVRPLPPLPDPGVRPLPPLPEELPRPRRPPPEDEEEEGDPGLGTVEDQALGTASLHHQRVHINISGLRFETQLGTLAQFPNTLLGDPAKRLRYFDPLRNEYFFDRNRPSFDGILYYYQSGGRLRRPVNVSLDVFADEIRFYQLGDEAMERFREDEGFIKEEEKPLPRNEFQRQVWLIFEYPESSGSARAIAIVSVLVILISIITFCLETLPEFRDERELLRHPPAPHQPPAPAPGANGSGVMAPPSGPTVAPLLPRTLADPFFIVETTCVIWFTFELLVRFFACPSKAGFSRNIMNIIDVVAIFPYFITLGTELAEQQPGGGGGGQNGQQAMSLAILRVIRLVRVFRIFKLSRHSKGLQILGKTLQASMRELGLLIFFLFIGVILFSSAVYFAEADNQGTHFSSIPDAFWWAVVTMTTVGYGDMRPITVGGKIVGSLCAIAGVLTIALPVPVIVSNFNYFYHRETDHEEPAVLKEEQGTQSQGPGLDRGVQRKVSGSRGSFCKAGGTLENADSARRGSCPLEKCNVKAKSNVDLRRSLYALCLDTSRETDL
Regarding `CC1=C(S(=O)(=O)c2ccc(C(F)(F)F)cc2)C(c2ccc(Cl)c(Cl)c2)n2nc(C)cc2N1` (single isomer, unassigned) [Example 9 Isomer 2, 7-(3,4-Dichlorophenyl)-2,5-dimethyl-6-(4-(trifluoromethyl)phenylsulfonyl)-4,7-dihydropyrazolo[1,5-a]pyrimidine], the inhibition at 0.3 µM came out at 59.7%. `CC1=C(S(=O)(=O)NCc2ccccc2)C(c2ccc(Cl)cc2)n2nc(C)cc2N1` (single isomer, unassigned) [Example 55 Isomer 2, N-Benzyl-7-(4-chlorophenyl)-2,5-dimethyl-4,7-dihydropyrazolo[1,5-a]pyrimidine-6-sulfonamide]: the Kv1.5% inhibition is on record as 17.2%.

As to `COc1ccc(S(=O)(=O)C2=C(CO)Nc3cc(C(F)(F)F)nn3C2c2ccc(Cl)c(Cl)c2)cc1` (racemic) [Example 48, (7-(3,4-Dichlorophenyl)-6-(4-methoxyphenylsulfonyl)-2-(trifluoromethyl)-4,7-dihydropyrazolo[1,5-a]pyrimidin-5-yl)methanol], 0.3 µM produced 15% inhibition. With `COc1ccc(S(=O)(=O)C2=C(C)Nc3cc(C(F)(F)F)nn3C2c2ccc(C)c(F)c2)cc1` (single isomer, unassigned) [Example 32 Isomer 2, 7-(3-Fluoro-4-methylphenyl)-6-(4-methoxyphenylsulfonyl)-5-methyl-2-(trifluoromethyl)-4,7-dihydropyrazolo[1,5-a]pyrimidine], the Kv1.5% inhibition is listed as 72.7%. Same read-out and setting: the result for `CC1=C(S(=O)(=O)c2ccccc2)C(c2ccc(Cl)c(F)c2)n2nc(C)cc2N1` (single isomer, unassigned) [Example 7 Isomer 1, 7-(4-Chloro-3-fluorophenyl)-2,5-dimethyl-6-(phenylsulfonyl)-4,7-dihydropyrazolo[1,5-a]pyrimidine] reads 90.8%. Turning to `CC1=C(S(=O)(=O)N2CCCC2)C(c2ccc(Cl)c(Cl)c2)n2nc(C)nc2N1` (racemic) [Example 68, 7-(3,4-Dichlorophenyl)-2,5-dimethyl-6-(pyrrolidin-1-ylsulfonyl)-4,7-dihydro-[1,2,4]triazolo[1,5-a]pyrimidine], the inhibition at 0.3 µM worked out at 7%. Same read-out and setting: then `COc1ccc(S(=O)(=O)C2=C(C)Nc3cc(C)nn3C2c2ccc(Cl)cc2)cc1` (single isomer, unassigned) [Example 19 Isomer 2, 7-(4-Chlorophenyl)-6-(4-methoxyphenylsulfonyl)-2,5-dimethyl-4,7-dihydropyrazolo[1,5-a]pyrimidine], with 42.3%.

As to `CCCCS(=O)(=O)C1=C(C)Nc2cc(C)nn2C1c1ccc(Cl)c(Cl)c1` (single isomer, unassigned) [Example 18 Isomer 2, 6-(Butylsulfonyl)-7-(3,4-dichlorophenyl)-2,5-dimethyl-4,7-dihydropyrazolo[1,5-a]pyrimidine], the Kv1.5% inhibition worked out at 28.8%. With `CC1=C(S(=O)(=O)c2ccccn2)C(c2ccc(Cl)cc2)n2nc(C(F)(F)F)cc2N1` (single isomer, unassigned) [Example 47 Isomer 2, 7-(4-Chlorophenyl)-5-methyl-6-(pyridin-2-ylsulfonyl)-2-(trifluoromethyl)-4,7-dihydropyrazolo[1,5-a]pyrimidine], the inhibition at 0.3 µM amounted to 75.8%. Turning to `CC1=C(S(=O)(=O)c2ccccc2)C(c2ccc(Cl)cc2)n2nc(C(F)(F)F)cc2N1` (single isomer, unassigned) [Example 26 Isomer 2, 7-(4-Chlorophenyl)-5-methyl-6-(phenylsulfonyl)-2-(trifluoromethyl)-4,7-dihydropyrazolo[1,5-a]pyrimidine], the Kv1.5% inhibition amounted to 85.9%.

Consider `CC1=C(C(=O)N(C)S(=O)(=O)c2ccc(Cl)cc2)C(c2ccc(Cl)c(Cl)c2)n2nc(C(F)(F)F)cc2N1` (racemic) [Example 89, N-(4-Chlorophenylsulfonyl)-7-(3,4-dichlorophenyl)-N,5-dimethyl-2-(trifluoromethyl)-4,7-dihydropyrazolo[1,5-a]pyrimidine-6-carboxamide], for which the inhibition at 0.3 µM worked out at 40%. The same measure, in the same setting: the result for `CC1=C(S(=O)(=O)c2ccc(C)cc2)C(c2ccc(Cl)cc2)n2nc(C(F)(F)F)cc2N1` (single isomer, unassigned) [Example 28 Isomer 1, 7-(4-Chlorophenyl)-5-methyl-6-tosyl-2-(trifluoromethyl)-4,7-dihydropyrazolo[1,5-a]pyrimidine] reads 77.4%; that for `CC1=C(S(=O)(=O)N2CCCC2)C(c2cc3ccccc3n2C)n2nc(C(F)(F)F)cc2N1` (racemic) [Example 71, 5-Methyl-7-(1-methyl-1H-indol-2-yl)-6-(pyrrolidin-1-ylsulfonyl)-2-(trifluoromethyl)-4,7-dihydropyrazolo[1,5-a]pyrimidine], 41%; that for `CC1=C(S(=O)(=O)c2ccc(Cl)cc2)C(c2ccc(Cl)cc2)n2nc(C(F)(F)F)cc2N1` (single isomer, unassigned) [Example 31 Isomer 1, 7-(4-Chlorophenyl)-6-(4-chlorophenylsulfonyl)-5-methyl-2-(trifluoromethyl)-4,7-dihydropyrazolo[1,5-a]pyrimidine], 82.7%. The molecule `CC1=C(S(=O)(=O)N2CCCC2)C(c2ccc(Cl)c(Cl)c2)n2nc(C)cc2N1` (single isomer, unassigned) [Example 53 Isomer 2, 7-(3,4-Dichlorophenyl)-2,5-dimethyl-6-(pyrrolidin-1-ylsulfonyl)-4,7-dihydropyrazolo[1,5-a]pyrimidine] displayed a Kv1.5% inhibition of 54.7%. The same measure, in the same setting: the result for `CC1=C(C(=O)N(C)S(=O)(=O)c2ccccc2)C(c2ccc(Cl)c(Cl)c2)n2nc(C)cc2N1` (single isomer, unassigned) [Example 79 Isomer 2, 7-(3,4-Dichlorophenyl)-N,2,5-trimethyl-N-(phenylsulfonyl)-4,7-dihydropyrazolo[1,5-a]pyrimidine-6-carboxamide] reads 88%.

The assay is the same for the next values; noted with them: read-out: Kv1.5 IC50.
For the molecule `COc1ccc(S(=O)(=O)C2=C(C)Nc3cc(C)nn3C2c2cccc(Cl)c2)cc1` (single isomer, unassigned) [Example 17 Isomer 1, 7-(3-Chlorophenyl)-6-(4-methoxyphenylsulfonyl)-2,5-dimethyl-4,7-dihydropyrazolo[1,5-a]pyrimidine], the IC50 was 256 nM. As for `CCCCS(=O)(=O)N(C)C(=O)C1=C(C)Nc2cc(C(F)(F)F)nn2C1c1ccc(Cl)c(Cl)c1` (racemic) [Example 86, N-(Butylsulfonyl)-7-(3,4-dichlorophenyl)-N,5-dimethyl-2-(trifluoromethyl)-4,7-dihydropyrazolo[1,5-a]pyrimidine-6-carboxamide], the IC50 was determined as 242 nM.
